One molecule from ChEMBL document CHEMBL4340512, “Discovery of novel triazolo[4,3-b]pyridazin-3-yl-quinoline derivatives as PIM inhibitors” (Eur J Med Chem, 2019) can be followed below.

For test [1], the system named is MV4-11. In words: Antiproliferative activity against human MV4-11 assessed as combination index at 10 uM incubated for 72 hrs in presence of GI50 dose of GDC-0941 by CellTiter-Glo luminescence assay. In kind it is functional.
The subject of test [2] is Raji. As to the kind of experiment: Antiproliferative activity against human Raji cells incubated for 72 hrs by CellTiter-Glo luminescence assay. Type of test: functional.
For test [3], the system named is A549. In words: Antiproliferative activity against human A549 cells incubated for 72 hrs by CellTiter-Glo luminescence assay. Type of test: functional. The conditions noted are these: A549, 72 h.
The nature of test [4]: Antiproliferative activity against human TC71 cells incubated for 72 hrs by CellTiter-Glo luminescence assay. The conditions noted are these: TC-71, 72 h. Type of test: functional.
Test [5] addresses Serine/threonine-protein kinase pim-1 (Homo sapiens, UniProt P11309). In words: Inhibition of His tagged human recombinant PIM1 using PIM tide (ARKRRRHPSGPPTA) as substrate incubated for 1 hr by fluorescence based assay.
For test [6], the system named is MDA-MB-231. In words: Antiproliferative activity against human MDA-MB-231 assessed as combination index at 20 uM incubated for 72 hrs in presence of GI50 dose of PD-0325901 by CellTiter-Glo luminescence assay. In kind it is functional.

Serine/threonine-protein kinase pim-1, sequence (P11309 whole entry): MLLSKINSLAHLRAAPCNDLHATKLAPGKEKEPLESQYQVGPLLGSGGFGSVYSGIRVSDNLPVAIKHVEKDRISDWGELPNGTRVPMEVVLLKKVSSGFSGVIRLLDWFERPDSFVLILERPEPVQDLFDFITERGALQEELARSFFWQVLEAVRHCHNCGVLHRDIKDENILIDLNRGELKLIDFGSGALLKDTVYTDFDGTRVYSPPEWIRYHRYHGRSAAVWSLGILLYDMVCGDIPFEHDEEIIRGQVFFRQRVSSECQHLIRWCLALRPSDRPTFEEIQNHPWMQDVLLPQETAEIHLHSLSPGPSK

In the case of `COCCN1CCOc2c1cnn1c(-c3ccc4cccc(NCC5CCNCC5)c4n3)nnc21`, the results for the CI in test [1] and in test [6] were 0.334 and 0.32, respectively. Moreover, the GI50 turned out to be 20 µM in test [2], 16.2 µM in test [3] and 14.9 µM in test [4]. In addition, the IC50 in test [5] was 0.007 µM.
